Molecular target: T1, mOR-I7 (Mus musculus, UniProt Q9QWU6)
T1 construct: expressed in transfected cells; host or cells: HEK 293T
T1 sequence (Q9QWU6 1-327): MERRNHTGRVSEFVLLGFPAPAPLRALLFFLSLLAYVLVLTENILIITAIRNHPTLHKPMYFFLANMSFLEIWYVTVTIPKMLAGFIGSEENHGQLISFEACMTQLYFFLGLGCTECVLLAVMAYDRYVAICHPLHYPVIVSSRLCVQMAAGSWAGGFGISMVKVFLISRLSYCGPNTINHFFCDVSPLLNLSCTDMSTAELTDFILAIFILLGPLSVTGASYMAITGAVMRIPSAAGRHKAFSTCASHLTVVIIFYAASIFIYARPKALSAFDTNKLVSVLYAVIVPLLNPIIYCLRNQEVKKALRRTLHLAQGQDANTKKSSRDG
Assay: CCBSA single cell calcium imaging (Fluo4) on HEK 293T overexpressing mOR-I7
Format: cell-based
Settings: bovine olfactory mucus incubated with 16 μl of 1M octanal, 16 hours 4° C.; 20 cells
Protocol: FIG. 3: Development of a novel olfactory functional assay. (A) Scheme of the novel assay according to the present invention, CCBSA. See details in the text. (B) Application of CCBSA on a microplate format fluorescent cell-based assay. Increasing volume of octanal were incubated in CCBSA, and applied on HEK 293T cell line overexpressing or not mOR-I7. Calcium flux was followed with fluo4 as calcium tracer. (C) Application of CCBSA on single cell calcium imaging assay. Octanal was incubated in CCBSA and applied on HEK 293T overexpressing mOR-I7. Upper panel depicts kinetics of calcium flux followed with fluo4 as calcium tracer. Octanal-incubated bovine olfactory mucus was applied at 50 s and ATP as positive control was applied at 310 s. Forty X objective was used for this experiment. Middle panel show kinetics of 20 individual cells taken off the field represented in the upper panel. Finally, a representation of the average of the 20 traces is given in the lower panel.
To further validate this assay, single cell calcium imaging assays following the same approach were performed (FIG. 3C). Bovine olfactory mucus was incubated in the presence of 16 μl of a 1M octanal solution for 16 hours at 4° C. […]
This novel assay allows thus an efficient solubilization of odorant and greatly improves the efficacy of the molecule. […] Such disproportion has never been detected in a conventional assay. […]

activation of cells overexpressing mOR-I7 (single cell fluorescence kinetics): activated
Structure (SMILES): CCCCCCCC=O [octanal]
